From US20250170130A1, “MODULATORS OF MYC FAMILY PROTO-ONCOGENE PROTEIN” (Nalo Therapeutics, priority 2022, published 2025)

How the values were obtained:
MycN = target: T1, MycN (Homo sapiens, UniProt P04198); assay: Degradation of MycN protein in SK-N-BE(2) cells, JESS/Western blot of lysates; type: cell-based; conditions: SKNBE2 cells, 24 h; for Dmax at 0.5 µM / Dmax at 1 µM / Dmax at 3 µM / Dmax at 6 µM: SKNBE2, 24 h; for Dmax at 0.5 µM: read-out: % Degradation of MycN (SKNBE2) 24 h, 0.5 μM; for Dmax at 1 µM: read-out: % Degradation of MycN (SKNBE2) 24 h, 1 μM; for Dmax at 3 µM: read-out: % Degradation of MycN (SKNBE2) 24 h, 3 μM; for Dmax at 6 µM: read-out: % Degradation of MycN (SKNBE2) 24 h, 6 μM
T1 construct: endogenous in cells; host or cells: SK-N-BE(2)
T1 sequence (P04198 1-464): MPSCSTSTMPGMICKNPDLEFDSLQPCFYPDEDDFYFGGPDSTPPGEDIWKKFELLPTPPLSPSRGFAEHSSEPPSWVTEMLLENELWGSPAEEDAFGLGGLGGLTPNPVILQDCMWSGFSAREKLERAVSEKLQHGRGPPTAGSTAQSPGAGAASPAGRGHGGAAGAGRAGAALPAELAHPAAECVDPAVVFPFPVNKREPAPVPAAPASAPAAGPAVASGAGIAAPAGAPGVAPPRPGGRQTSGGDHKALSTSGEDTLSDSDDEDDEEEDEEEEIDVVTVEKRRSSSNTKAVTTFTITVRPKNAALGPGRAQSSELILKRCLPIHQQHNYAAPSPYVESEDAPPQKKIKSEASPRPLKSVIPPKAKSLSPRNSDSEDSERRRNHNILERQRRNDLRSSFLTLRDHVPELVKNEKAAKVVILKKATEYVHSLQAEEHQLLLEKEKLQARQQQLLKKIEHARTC
Method in brief: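 SK-N-BE(2) adherent cells (5E5 per well of a 6 well dish) were grown 24 hrs, then exposed to compounds diluted 1 in 20 in media, with DMSO controls, for 24 hrs. Cells were scraped, pelleted, PBS washed and lysed in RIPA buffer cocktail; after BCA protein quantitation, n-myc was detected by chemiluminescence on JESS/Western blot with tubulin and GAPDH loading controls read in the near infra red channel.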

MycC = target: T2, MycC (Homo sapiens, UniProt P01106); assay: Degradation of MycC protein in L363 cells, JESS/Western blot of lysates; type: cell-based; conditions: L-363, 24 h, L-363 cells, 24 h; for Dmax at 0.5 µM: read-out: % Degradation of MycC (L-363) 24 h, 0.5 μM; for Dmax at 3 µM: read-out: % Degradation of MycC (L-363) 24 h, 3 μM; for Dmax at 6 µM: read-out: % Degradation of MycC (L-363) 24 h, 6 μM; for Dmax at 1 µM: read-out: % Degradation of MycC (L-363) 24 h, 1 μM
T2 construct: endogenous in cells; host or cells: L363
T2 sequence (P01106 whole entry): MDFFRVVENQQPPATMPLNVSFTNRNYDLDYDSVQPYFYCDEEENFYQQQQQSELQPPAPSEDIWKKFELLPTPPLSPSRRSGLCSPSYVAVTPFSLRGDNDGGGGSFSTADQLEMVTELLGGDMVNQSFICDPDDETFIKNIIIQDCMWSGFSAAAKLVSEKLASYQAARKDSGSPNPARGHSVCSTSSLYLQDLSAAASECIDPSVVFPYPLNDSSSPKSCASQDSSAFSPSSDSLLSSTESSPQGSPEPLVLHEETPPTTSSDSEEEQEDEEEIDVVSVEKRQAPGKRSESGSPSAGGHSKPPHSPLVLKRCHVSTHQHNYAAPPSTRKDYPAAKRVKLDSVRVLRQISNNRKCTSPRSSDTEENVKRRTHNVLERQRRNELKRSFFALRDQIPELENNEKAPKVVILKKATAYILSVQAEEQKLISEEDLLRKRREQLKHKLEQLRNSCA
Method in brief: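 L363 suspension cells were seeded at 1E6 cells per well and exposed to compound (stock 10 mM in DMSO) for 24 hrs. Cells were collected, spun down, rinsed with PBS, lysed in RIPA buffer cocktail on ice, clarified and kept at −80 degrees. Lysate protein was quantified by BCA, and c-myc was measured on JESS by chemiluminescence with tubulin and GAPDH loading controls in the NIR channel.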

Dmax at 0.5 µM (MycN) [%]	Dmax at 1 µM (MycN) [%]	Dmax at 3 µM (MycN) [%]	Dmax at 6 µM (MycN; 6 μM) [%]	Dmax at 0.5 µM (MycC) [%]	Dmax at 3 µM (MycC) [%]	Dmax at 6 µM (MycC) [%]	Dmax at 1 µM (MycC) [%]	% Degradation of MycN (SKNBE2) 24 h, 6 μM (MycN; 6 μM)	SMILES
	80 to 100	80 to 100	80 to 100	< 20	80 to 100	80 to 100			NCC12CC(C1)N(c1nccc(Nc3cc(C4CCCC4)[nH]n3)n1)C2 [Compound 66, 2-[4-(aminomethyl)-2-azabicyclo[2.1.1]hexan-2-yl]-N-(5-cyclopentyl-1H-pyrazol-3-yl)pyrimidin-4-amine]
		20 to 49	20 to 49	< 20					CN[C@@H]1CCN(c2nccc(Nc3cc(C4CC4)[nH]n3)n2)C1 [Compound 19, N-(5-Cyclopropyl-1H-pyrazol-3-yl)-2-[(3R)-3-(methylamino)pyrrolidin-1-yl]pyrimidin-4-amine]
< 20	20 to 49	50 to 79	80 to 100		20 to 49	80 to 100			O=S1(=O)CCN(CC23CC(C2)N(c2nccc(Nc4cc(C5CCCC5)[nH]n4)n2)C3)CC1 [Compound 73, N-(5-Cyclopentyl-1H-pyrazol-3-yl)-2-[4-[(1,1-dioxo-1,4-thiazinan-4-yl)methyl]-2-azabicyclo[2.1.1]hexan-2-yl]pyrimidin-4-amine]
20 to 49	< 20	50 to 79	50 to 79	< 20	20 to 49	80 to 100	20 to 49		COC1CN(CC23CC(C2)N(c2nccc(Nc4cc(C5CCCC5)[nH]n4)n2)C3)C1 [Compound 177, N-(5-Cyclopentyl-1H-pyrazol-3-yl)-2-[4-[(3-methoxyazetidin-1-yl)methyl]-2-azabicyclo[2.1.1]hexan-2-yl]pyrimidin-4-amine]
	< 20	20 to 49	20 to 49				20 to 49		c1cc(Nc2cc(C3CC3)[nH]n2)nc(N2CCC(C3CNC3)C2)n1 (racemic) [Compound 39, (±)-2-[3-(azetidin-3-yl)pyrrolidin-1-yl]-N-(5-cyclopropyl-1H-pyrazol-3-yl)pyrimidin-4-amine]
20 to 49	50 to 79	80 to 100	80 to 100		80 to 100	80 to 100			NCC1CN(c2nccc(Nc3cc(C4CCCC4)[nH]n3)n2)CC(F)(F)C1 (stereo not drawn) [Compound 115, 2-[5-(Aminomethyl)-3,3-difluoro-1-piperidyl]-N-(5-cyclopentyl-1H-pyrazol-3-yl)pyrimidin-4-amine]

More lines, now with the values behind:

SMILES	Dmax at 0.5 µM (MycN) [%]	Dmax at 1 µM (MycN) [%]	Dmax at 3 µM (MycN) [%]	Dmax at 6 µM (MycN; 6 μM) [%]	Dmax at 0.5 µM (MycC) [%]	Dmax at 3 µM (MycC) [%]	Dmax at 6 µM (MycC) [%]	Dmax at 1 µM (MycC) [%]	% Degradation of MycN (SKNBE2) 24 h, 6 μM (MycN; 6 μM)
NC[C@@H]1CCCN(c2nccc(Nc3cc(C4CC4)[nH]n3)n2)C1 [Compound 24, 2-[(3S)-3-(aminomethyl)-1-piperidyl]-N-(5-cyclopropyl-1H-pyrazol-3-yl)pyrimidin-4-amine]	20 to 49	50 to 79	80 to 100	80 to 100	< 20	80 to 100	80 to 100		
CNC[C@H]1CN(c2nccc(Nc3cc(C4CCCC4)[nH]n3)n2)C[C@H]1F [Compound 181]	< 20	< 20	20 to 49	80 to 100			80 to 100	< 20	
CN1CC2(CCCN(c3nccc(Nc4cc(C5CC5)[nH]n4)n3)C2)C1 [Compound 43]	20 to 49	20 to 49	20 to 49	50 to 79	20 to 49	20 to 49	< 20	< 20	
CNC(C)C1CCCN(c2nccc(Nc3cc(C4CC4)[nH]n3)n2)C1 (single isomer, unassigned) [Compound 162, N-(5-Cyclopropyl-1H-pyrazol-3-yl)-2-[3-[1-(methylamino)ethyl]-1-piperidyl]pyrimidin-4-amine]	20 to 49	20 to 49		80 to 100	20 to 49	20 to 49		20 to 49	**** (degradation 80-100%)
CN(C)C[C@H]1CCN(c2nccc(Nc3cc(C4CC4)[nH]n3)n2)C1 (stereo in doubt) [Compound 32, N-(5-cyclopropyl-1H-pyrazol-3-yl)-2-[rac-(3R)-3-[(dimethylamino)methyl]pyrrolidin-1-yl]pyrimidin-4-amine]	20 to 49	20 to 49	50 to 79	50 to 79			< 20	< 20	
NC[C@@H]1CN(c2nccc(Nc3cc(C4CC4)[nH]n3)n2)C[C@@H]1F [Compound 122-1, 2-[(3R,4R)-3-(Aminomethyl)-4-fluoro-pyrrolidin-1-yl]-N-(5-cyclopropyl-1H-pyrazol-3-yl)pyrimidin-4-amine]	20 to 49	20 to 49	20 to 49	80 to 100	20 to 49	80 to 100	80 to 100	50 to 79	
NC[C@H]1CCCN(c2nccc(Nc3cc(C4CCCC4)[nH]n3)n2)C1 [Compound 108, 2-[(3R)-3-(Aminomethyl)-1-piperidyl]-N-(5-cyclopentyl-1H-pyrazol-3-yl)pyrimidin-4-amine]	< 20	50 to 79	50 to 79	80 to 100		80 to 100	80 to 100		
CN(C)CC12CC(C1)N(c1nccc(Nc3cc(C4CC4)[nH]n3)n1)C2 [Compound 22, N-(5-Cyclopropyl-1H-pyrazol-3-yl)-2-[4-[(dimethylamino)methyl]-2-azabicyclo[2.1.1]hexan-2-yl]pyrimidin-4-amine]	< 20	< 20	20 to 49	50 to 79		< 20	80 to 100		
CNC[C@@H]1CCN(c2nccc(Nc3cc(C4CCCC4)[nH]n3)n2)C1 [Compound 36, N-(5-cyclopentyl-1H-pyrazol-3-yl)-2-[(3S)-3-(methylaminomethyl)pyrrolidin-1-yl]pyrimidin-4-amine]	20 to 49	< 20	80 to 100	80 to 100	< 20	< 20	80 to 100	20 to 49	
NC[C@@H]1CN(c2nccc(Nc3cc(C4CCCC4)[nH]n3)n2)CCO1 [Compound 116, 2-[(2R)-2-(Aminomethyl)morpholin-4-yl]-N-(5-cyclopentyl-1H-pyrazol-3-yl)pyrimidin-4-amine]	< 20	< 20	80 to 100	80 to 100		80 to 100	80 to 100	< 20	
CN1CC2(CCN(c3nccc(Nc4cc(C5CCCC5)[nH]n4)n3)CC2)C1 [Compound 86]	20 to 49	20 to 49	80 to 100	80 to 100		80 to 100	80 to 100		
CNC[C@H]1CN(c2nccc(Nc3cc(C4CC4)[nH]n3)n2)C[C@H]1F [Compound 191, N-(5-Cyclopropyl-1H-pyrazol-3-yl)-2-[(3S,4S)-3-fluoro-4-(methylaminomethyl)pyrrolidin-1-yl]pyrimidin-4-amine]	< 20	20 to 49	80 to 100	80 to 100		50 to 79	80 to 100	< 20	
CN1CC(C2CN(c3nccc(Nc4cc(C5CCCC5)[nH]n4)n3)C2)C1 [Compound 65, N-(5-Cyclopentyl-1H-pyrazol-3-yl)-2-[3-(1-methylazetidin-3-yl)azetidin-1-yl]pyrimidin-4-amine]	< 20	< 20	20 to 49	50 to 79	< 20	< 20	50 to 79	< 20	
